Read-outs that look alike come from different tables or passages of the source.
Assays:
[1] = tested on: Salmonella typhimurium TA1535
Method: (§1) In brief, Salmonella typhimurium (TA98, TA100, TA102, TA1535, and TA1537) was cultured in a nutrient broth (12 mL) at 37 °C. […] Later, the mixture was added to 2 mL of top agar containing 0.5 mM L-histidine and 0.5 mM D-biotin. The mixture was agitated and poured onto the minimal agar plate and incubated at 37 °C for 48 h. All experiments were conducted in triplicate. The number of revertant colonies per plate was counted. The MR was calculated from the average of the revertant number divided by the average of negative control revertant number.

[2] = tested on: Salmonella typhimurium TA102; conditions: TA102, +S9, positive control
Method: as §1

[3] = tested on: Salmonella typhimurium TA100
Method: as §1

[4] = tested on: Salmonella typhimurium TA1537; experiment: Bacterial reverse mutation test (Ames test), TA1537
Method: as §1

[5] = tested on: Salmonella typhimurium TA98; experiment: Bacterial reverse mutation test (Ames test), TA98; conditions: TA98, +S9, positive control
Method: as §1

[6] = tested on: flies expressing human APP and BACE-1 in the developing eyes; experiment: Drosophila eye morphology by scanning electron microscopy; type: in vivo, Drosophila melanogaster; conditions: AD flies, 21 days
Method: All fly stocks were maintained in a standard medium at 25 °C, 60% humidity, and a 12 h/12 h light–dark cycle in constant climate chambers with ICH-compliant light source (BINDER GmbH, Tuttlingen, Germany). […] Flies were cultivated for 21 days at 28 °C, with food changes every three days.
The external compound eyes were then inspected using JSM-IT510 InTouchScope™ SEM Series (JEOL, Peabody, MA, USA) in a vacuum mode.

[7] = tested on: transgenic Drosophila model for AD; conditions: cited from earlier work
[8] = molecular target: acetylcholinesterase (AChE) (Electrophorus electricus, UniProt O42275); conditions: in combination with donepezil
acetylcholinesterase (AChE), sequence (O42275 24-633): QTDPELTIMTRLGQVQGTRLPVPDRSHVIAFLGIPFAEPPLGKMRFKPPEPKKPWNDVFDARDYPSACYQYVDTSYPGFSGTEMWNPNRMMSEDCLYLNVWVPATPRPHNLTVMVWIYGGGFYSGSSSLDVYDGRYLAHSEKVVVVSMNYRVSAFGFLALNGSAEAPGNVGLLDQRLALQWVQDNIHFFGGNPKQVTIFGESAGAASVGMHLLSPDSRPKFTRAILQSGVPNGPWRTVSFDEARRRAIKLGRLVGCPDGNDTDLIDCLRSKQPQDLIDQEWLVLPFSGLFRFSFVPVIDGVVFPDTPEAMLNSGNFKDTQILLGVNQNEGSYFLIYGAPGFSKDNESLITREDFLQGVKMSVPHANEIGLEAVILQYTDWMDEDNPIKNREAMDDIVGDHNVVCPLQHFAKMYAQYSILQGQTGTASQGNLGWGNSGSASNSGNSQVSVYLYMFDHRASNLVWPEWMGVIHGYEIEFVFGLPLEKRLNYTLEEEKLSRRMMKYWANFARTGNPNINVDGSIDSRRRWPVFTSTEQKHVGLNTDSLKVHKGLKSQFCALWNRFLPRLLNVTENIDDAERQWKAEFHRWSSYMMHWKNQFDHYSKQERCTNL
Method: AChE and BChE inhibition were determined using well-established protocols without modifications. For BACE-1 inhibition, we complied with the manufacturer’s instructions (BACE-1 FRET assay kit, Sigma-Aldrich, St. Louis, MO, USA).
The half-maximal inhibitory concentration (IC50) against AChE, BChE and BACE-1 were calculated using GraphPad Prism (version 9.0, La Jolla, CA, USA) as follows:(2) Y=Bottom+Top−Bottom/1+10^((logIC50−X) × (HillSlope)), where Y is response, decreasing as X increases, X is log of dose or concentration, Top and Bottom are plateaus in same units as Y, and Hillslope is data slope factor or hill slope, unitless.

β-secretase (BACE-1) = molecular target: T1, β-secretase (BACE-1) (Homo sapiens, UniProt P56817); experiment: biochemical; type: biochemical; conditions: for BACE-1 inhibition (%): Figure 4
T1 construct: purchased Sigma-Aldrich
T1 sequence (P56817 46-501): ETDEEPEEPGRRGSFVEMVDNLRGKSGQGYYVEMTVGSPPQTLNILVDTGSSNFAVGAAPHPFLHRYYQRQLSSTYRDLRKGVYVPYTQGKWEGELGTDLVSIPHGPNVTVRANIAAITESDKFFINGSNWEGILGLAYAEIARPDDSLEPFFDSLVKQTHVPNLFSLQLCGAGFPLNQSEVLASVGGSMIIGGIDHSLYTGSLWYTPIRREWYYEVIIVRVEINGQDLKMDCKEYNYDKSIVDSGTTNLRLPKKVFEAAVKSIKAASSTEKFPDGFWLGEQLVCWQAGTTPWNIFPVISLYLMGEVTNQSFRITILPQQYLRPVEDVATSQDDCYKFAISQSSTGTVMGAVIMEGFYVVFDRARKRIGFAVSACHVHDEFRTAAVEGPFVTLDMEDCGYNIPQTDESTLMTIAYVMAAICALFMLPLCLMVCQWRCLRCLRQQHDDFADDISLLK

[9] = tested on: S. typhimurium TA98 and TA100; conditions: TA98 and TA100, with/without S9 extract; cited from earlier work
[10] = molecular target: butyrylcholinesterase (BChE) (Equus caballus, UniProt P81908); conditions: for interaction with donepezil to inhibit BChE: in combination with donepezil; for BChE inhibition (%): Figure 3
butyrylcholinesterase (BChE), sequence (P81908 whole entry): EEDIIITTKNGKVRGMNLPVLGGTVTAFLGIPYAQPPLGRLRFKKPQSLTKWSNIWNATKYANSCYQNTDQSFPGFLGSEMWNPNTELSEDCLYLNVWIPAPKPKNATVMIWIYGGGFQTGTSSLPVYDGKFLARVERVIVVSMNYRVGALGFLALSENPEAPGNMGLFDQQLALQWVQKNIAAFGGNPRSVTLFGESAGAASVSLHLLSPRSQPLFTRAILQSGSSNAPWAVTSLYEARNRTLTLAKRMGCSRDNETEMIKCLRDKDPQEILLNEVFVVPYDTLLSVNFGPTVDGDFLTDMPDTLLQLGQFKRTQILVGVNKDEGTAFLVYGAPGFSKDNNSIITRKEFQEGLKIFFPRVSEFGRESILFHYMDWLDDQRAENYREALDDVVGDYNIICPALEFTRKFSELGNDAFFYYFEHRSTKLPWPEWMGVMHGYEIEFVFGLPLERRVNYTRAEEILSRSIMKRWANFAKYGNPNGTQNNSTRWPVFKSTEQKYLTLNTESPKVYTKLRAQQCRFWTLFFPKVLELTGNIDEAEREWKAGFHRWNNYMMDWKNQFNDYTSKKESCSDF

[11] = tested on: isolated rat liver nuclei; conditions: cited from earlier work
[12] = rat, in vivo; cited from earlier work
AChE = conditions: cited from earlier work; for IC50: read-out: AChE IC50
PC12 cells = conditions: Aβ25–35-induced oxidative stress in PC12 cells; cited from earlier work
human lymphocytes = conditions: cited from earlier work
[13] = tested on: V79 Chinese hamster lung cells; conditions: cited from earlier work
BACE-1 = conditions: cited from earlier work
[14] = cited from earlier work
[15] = sample alone at IC20 (donepezil 0)
[16] = sample alone at IC30 (donepezil 0)

SMILES: Nc1ccc2cc3ccccc3cc2c1 [2-AA, 2-aminoanthracen]
- MR (mutagenicity ratio) ([1]; TA1535, +S9, positive control): 33.32
- MR class ([1]; TA1535, +S9, positive control): (+) ((+): indicates the mutagenicity ratio (MR) is ≥2)
- Revertant Colonies ([1]; TA1535, +S9, positive control): 349.83 ± 18.89
- MR class [2]: (+) ((+): indicates the mutagenicity ratio (MR) is ≥2)
- Revertant Colonies [2]: 960.67 ± 29.07
- MR (mutagenicity ratio) ([3]; TA100, +S9, positive control): 10.04
- MR class ([3]; TA100, +S9, positive control): (+) ((+): indicates the mutagenicity ratio (MR) is ≥2)
- Revertant Colonies ([3]; TA100, +S9, positive control): 876.67 ± 34.21
- MR (mutagenicity ratio) ([4]; TA1537, +S9, positive control): 20.71
- MR class ([4]; TA1537, +S9, positive control): (+) ((+): indicates the mutagenicity ratio (MR) is ≥2)
- Revertant Colonies ([4]; TA1537, +S9, positive control): 203.67 ± 5.56
- MR (mutagenicity ratio) [5]: 14.15
- MR class [5]: (+) ((+): indicates the mutagenicity ratio (MR) is ≥2)
- Revertant Colonies [5]: 1396.00 ± 48.94

SMILES: Nc1c2ccccc2nc2ccccc12 [9-AA, 9-aminoacridine]
- MR (mutagenicity ratio) ([4]; TA1537, −S9, positive control): 86.67
- MR class ([4]; TA1537, −S9, positive control): (+) ((+): indicates the mutagenicity ratio (MR) is ≥2)
- Revertant Colonies ([4]; TA1537, −S9, positive control): 780.00 ± 24.11

SMILES: COc1cc2c(cc1OC)C(=O)C(CC1CCN(Cc3ccccc3)CC1)C2 (stereo not shown) [Donepezil, donepezil]
- eye morphology (retina degeneration, ommatidia and bristles) ([6]; donepezil 2.5 µM): did not reverse retina degeneration
- eye morphology (retina degeneration, ommatidia and bristles) ([6]; donepezil 5 µM): did not reverse retina degeneration
- eye morphology (retina degeneration, ommatidia and bristles) ([6]; donepezil 10 µM): eye phenotypes roughly similar to the negative control

SMILES: O=c1c(O)c(-c2ccc(O)cc2)oc2cc(O)cc(O)c12 [Kaempferol, kaempferol]
- memory loss, climbing ability and AChE activity [7]: delayed memory loss by maintaining climbing ability and reducing AChE activity
- interaction with donepezil to inhibit AChE [8]: slightly antagonized
- interaction with donepezil on BACE-1 (β-secretase (BACE-1); in combination with donepezil): slightly antagonistically
- IC50 (β-secretase (BACE-1); read-out: Half-Maximal Inhibitory Concentration (IC50) BACE-1 (converted)): 299 µM
- BACE-1 inhibition (%) (β-secretase (BACE-1); [15]): 16%
- BACE-1 inhibition (%) (β-secretase (BACE-1); [16]): 29%
- genotoxicity in S. typhimurium [9]: genotoxicity exclusively when the S9 extract was present
- interaction with donepezil to inhibit BChE [10]: slight synergism
- BChE inhibition (%) [10, 15]: 22%
- BChE inhibition (%) [10, 16]: 29%
- nuclear DNA damages and lipid peroxidation [11]: induced nuclear DNA damages and lipid peroxidation
- tumor induction [12]: did not significantly induce tumors
- mode of AChE inhibition (AChE): reversible mixed mode
- IC50 (AChE): 12.4 µM

SMILES: [N-]=[N+]=[N-].[Na+] [NaN3, sodium azide]
- MR (mutagenicity ratio) ([1]; TA1535, −S9, positive control): 18.90
- MR class ([1]; TA1535, −S9, positive control): (+) ((+): indicates the mutagenicity ratio (MR) is ≥2)
- Revertant Colonies ([1]; TA1535, −S9, positive control): 214.17 ± 9.51
- MR (mutagenicity ratio) ([3]; TA100, −S9, positive control): 17.14
- MR class ([3]; TA100, −S9, positive control): (+) ((+): indicates the mutagenicity ratio (MR) is ≥2)
- Revertant Colonies ([3]; TA100, −S9, positive control): 1145.33 ± 52.03

SMILES: O=c1c(O)c(-c2ccc(O)c(O)c2)oc2cc(O)cc(O)c12 [Quercetin, quercetin]
- interaction with donepezil to inhibit AChE [8]: slightly antagonized
- neuroprotective effects (PC12 cells): demonstrated neuroprotective effects
- BACE-1 inhibition (%) (β-secretase (BACE-1); [15]): 22%
- BACE-1 inhibition (%) (β-secretase (BACE-1); [16]): 33%
- genotoxicity in S. typhimurium [9]: genotoxicity in the bacterial strains both with and without the S9 extract
- micronuclei induction (human lymphocytes): induced micronuclei
- micronuclei induction [13]: induced micronuclei
- interaction with donepezil to inhibit BChE [10]: slight synergism
- BChE inhibition (%) [10, 15]: 20%
- BChE inhibition (%) [10, 16]: 32%
- tumor induction [12]: did not significantly induce tumors

SMILES: O=C(/C=C/c1ccc(O)c(O)c1)O[C@H](Cc1ccc(O)c(O)c1)C(=O)O [rosmarinic acid]
- crossing of the BBB [14]: reported to cross the BBB
